In ChEMBL document CHEMBL1136945, “Antimalarial activity of thiosemicarbazones and purine derived nitriles” (Bioorg Med Chem Lett, 2009):

What was measured:
Format in all cases: functional, organism-based
Plasmodium falciparum [1] = test: Antimalarial activity as reduced parasitaemia after 72 hrs against chloroquine-sensitive Plasmodium falciparum 3D7 infected human O+ erythrocytes by DNA stain with pepstatin; settings: 3D7, 72 h
Plasmodium falciparum [2] = test: (§1) Antimalarial activity as reduced parasitaemia after 72 hrs against chloroquine-resistant Plasmodium falciparum K1 infected human O+ erythrocytes by DNA stain without pepstatin; settings: K1, 72 h
Plasmodium falciparum [3] = test: as §1; settings: K1, 72 h; remark: listed apart in the source
Plasmodium falciparum [4] = test: Antimalarial activity as reduced parasitaemia after 72 hrs against chloroquine-sensitive Plasmodium falciparum 3D7 infected human O+ erythrocytes by DNA stain without pepstatin; settings: 3D7, 72 h

Compound: N#Cc1nc(NCc2ccc(Cl)cc2)c2c(n1)N(C1CCCC1)CN2
- EC50 (Plasmodium falciparum [1]): 30 µM
- EC50 (Plasmodium falciparum [2]): 30 µM
- EC50 (Plasmodium falciparum [3]): > 30 µM
- EC50 (Plasmodium falciparum [4]): > 30 µM

Compound: CC(=O)Nc1ccc(CNc2nc(C#N)nc3c2ncn3CCCO)cc1
- EC50 (Plasmodium falciparum [1]): 30 µM
- EC50 (Plasmodium falciparum [2]): 30 µM
- EC50 (Plasmodium falciparum [3]): 30 µM
- EC50 (Plasmodium falciparum [4]): 30 µM

Compound: N#Cc1nc(NCc2ccc(Br)cc2)c2c(n1)N(Cc1ccccc1)CN2
- EC50 (Plasmodium falciparum [1]): 30 µM
- EC50 (Plasmodium falciparum [2]): 30 µM
- EC50 (Plasmodium falciparum [3]): 30 µM
- EC50 (Plasmodium falciparum [4]): > 30 µM

Compound: CCCCN1CNc2c(NCc3ccc(Br)cc3)nc(C#N)nc21
- EC50 (Plasmodium falciparum [1]): 30 µM
- EC50 (Plasmodium falciparum [2]): > 30 µM
- EC50 (Plasmodium falciparum [3]): 30 µM
- EC50 (Plasmodium falciparum [4]): > 30 µM

Compound: COc1cc(OC)c(-c2cccc(CNc3nc(C#N)nc4c3ncn4CCCO)c2)cn1
- EC50 (Plasmodium falciparum [1]): > 30 µM
- EC50 (Plasmodium falciparum [2]): > 30 µM
- EC50 (Plasmodium falciparum [3]): > 30 µM
- EC50 (Plasmodium falciparum [4]): > 30 µM

Compound: CCCCCCNc1nc(C#N)nc2c1NCN2C1CCCC1
- EC50 (Plasmodium falciparum [1]): > 30 µM
- EC50 (Plasmodium falciparum [2]): > 30 µM
- EC50 (Plasmodium falciparum [3]): > 30 µM
- EC50 (Plasmodium falciparum [4]): > 30 µM

Compound: Cc1ccc(CNc2nc(C#N)nc3c2NCN3Cc2ccccc2)cc1
- EC50 (Plasmodium falciparum [1]): > 30 µM
- EC50 (Plasmodium falciparum [2]): > 30 µM
- EC50 (Plasmodium falciparum [3]): > 30 µM
- EC50 (Plasmodium falciparum [4]): > 30 µM

Compound: CCCCCCNc1nc(C#N)nc2c1NCN2Cc1ccccc1
- EC50 (Plasmodium falciparum [1]): > 30 µM
- EC50 (Plasmodium falciparum [2]): > 30 µM
- EC50 (Plasmodium falciparum [3]): > 30 µM
- EC50 (Plasmodium falciparum [4]): > 30 µM

Compound: N#Cc1nc(NCc2ccc(Cl)c(Cl)c2)c2c(n1)N(Cc1ccccc1)CN2
- EC50 (Plasmodium falciparum [1]): 30 µM
- EC50 (Plasmodium falciparum [2]): 30 µM
- EC50 (Plasmodium falciparum [3]): > 30 µM
- EC50 (Plasmodium falciparum [4]): > 30 µM

Compound: CCCC/C(=N\NC(N)=S)c1ccc(Cl)c(Cl)c1
- EC50 (Plasmodium falciparum [1]): > 30 µM
- EC50 (Plasmodium falciparum [2]): > 30 µM
- EC50 (Plasmodium falciparum [3]): > 30 µM
- EC50 (Plasmodium falciparum [4]): > 30 µM

Compound: N#Cc1nc(NCc2cccc(-c3cccnc3)c2)c2ncn(CCCO)c2n1
- EC50 (Plasmodium falciparum [1]): > 30 µM
- EC50 (Plasmodium falciparum [2]): > 30 µM
- EC50 (Plasmodium falciparum [3]): > 30 µM
- EC50 (Plasmodium falciparum [4]): > 30 µM

Compound: COc1ccc(-c2cccc(CNc3nc(C#N)nc4c3ncn4CCCO)c2)cc1
- EC50 (Plasmodium falciparum [1]): > 30 µM
- EC50 (Plasmodium falciparum [2]): > 30 µM
- EC50 (Plasmodium falciparum [3]): > 30 µM
- EC50 (Plasmodium falciparum [4]): > 30 µM

Compound: N#Cc1nc(NCCc2ccccc2)c2c(n1)N(Cc1ccccc1)CN2
- EC50 (Plasmodium falciparum [1]): > 30 µM
- EC50 (Plasmodium falciparum [2]): > 30 µM
- EC50 (Plasmodium falciparum [3]): > 30 µM
- EC50 (Plasmodium falciparum [4]): > 30 µM

Compound: N#Cc1nc(NCc2ccccc2)c2c(n1)N(Cc1ccccc1)CN2
- EC50 (Plasmodium falciparum [1]): > 30 µM
- EC50 (Plasmodium falciparum [2]): > 30 µM
- EC50 (Plasmodium falciparum [3]): > 30 µM
- EC50 (Plasmodium falciparum [4]): > 30 µM

Compound: N#Cc1nc(NCc2cccc(-c3ccc4cc[nH]c4c3)c2)c2ncn(CCCO)c2n1
- EC50 (Plasmodium falciparum [1]): > 30 µM
- EC50 (Plasmodium falciparum [2]): > 30 µM
- EC50 (Plasmodium falciparum [3]): > 30 µM
- EC50 (Plasmodium falciparum [4]): > 30 µM

Compound: N#Cc1nc(NCc2cccc(-c3cc4ccccc4n3S(=O)(=O)c3ccccc3)c2)c2ncn(CCCO)c2n1
- EC50 (Plasmodium falciparum [1]): 30 µM
- EC50 (Plasmodium falciparum [2]): 30 µM
- EC50 (Plasmodium falciparum [3]): > 30 µM
- EC50 (Plasmodium falciparum [4]): > 30 µM

Compound: COc1ccc(CN2CNc3c(NCc4ccccc4)nc(C#N)nc32)cc1
- EC50 (Plasmodium falciparum [1]): > 30 µM
- EC50 (Plasmodium falciparum [2]): > 30 µM
- EC50 (Plasmodium falciparum [3]): > 30 µM
- EC50 (Plasmodium falciparum [4]): > 30 µM

Compound: N#Cc1nc(NCc2ccc(Cl)c(Cl)c2)c2c(n1)N(CC(O)CO)CN2 (configuration not stated)
- EC50 (Plasmodium falciparum [1]): > 30 µM
- EC50 (Plasmodium falciparum [2]): > 30 µM
- EC50 (Plasmodium falciparum [3]): > 30 µM
- EC50 (Plasmodium falciparum [4]): > 30 µM

Compound: CCC(C)CNc1nc(C#N)nc2c1NCN2Cc1ccccc1 (configuration not stated)
- EC50 (Plasmodium falciparum [1]): 30 µM
- EC50 (Plasmodium falciparum [2]): > 30 µM
- EC50 (Plasmodium falciparum [3]): > 30 µM
- EC50 (Plasmodium falciparum [4]): > 30 µM

Compound: CC(O)CN1CNc2c(NCc3ccc(Cl)c(Cl)c3)nc(C#N)nc21 (configuration not stated)
- EC50 (Plasmodium falciparum [1]): 30 µM
- EC50 (Plasmodium falciparum [2]): > 30 µM
- EC50 (Plasmodium falciparum [3]): > 30 µM
- EC50 (Plasmodium falciparum [4]): > 30 µM

Compound: CC(C)Oc1c(Br)cccc1-c1cccc(CNc2nc(C#N)nc3c2ncn3CCCO)c1
- EC50 (Plasmodium falciparum [1]): 30 µM
- EC50 (Plasmodium falciparum [2]): > 30 µM
- EC50 (Plasmodium falciparum [3]): > 30 µM
- EC50 (Plasmodium falciparum [4]): 30 µM

Compound: CCCCN1CNc2c(NCc3ccc(Cl)cc3)nc(C#N)nc21
- EC50 (Plasmodium falciparum [1]): 30 µM
- EC50 (Plasmodium falciparum [2]): > 30 µM
- EC50 (Plasmodium falciparum [3]): 30 µM
- EC50 (Plasmodium falciparum [4]): > 30 µM

Compound: N#Cc1nc(NCc2ccc(-c3cccc(Cl)c3)cc2)c2ncn(CCCO)c2n1
- EC50 (Plasmodium falciparum [1]): 14 µM
- EC50 (Plasmodium falciparum [2]): 18 µM
- EC50 (Plasmodium falciparum [3]): 20 µM
- EC50 (Plasmodium falciparum [4]): 20 µM

Compound: N#Cc1nc(NCc2cccc(-c3cc(Cl)cc(Cl)c3)c2)c2ncn(CCCO)c2n1
- EC50 (Plasmodium falciparum [1]): > 30 µM
- EC50 (Plasmodium falciparum [2]): > 30 µM
- EC50 (Plasmodium falciparum [3]): > 30 µM
- EC50 (Plasmodium falciparum [4]): > 30 µM

Compound: N#Cc1nc(NCc2ccc(F)cc2)c2c(n1)N(CCCCO)CN2
- EC50 (Plasmodium falciparum [1]): > 30 µM
- EC50 (Plasmodium falciparum [2]): > 30 µM
- EC50 (Plasmodium falciparum [3]): > 30 µM
- EC50 (Plasmodium falciparum [4]): > 30 µM

Compound: Cc1ccc(/C(=N/NC(N)=S)c2cc(Cl)cc(Cl)c2)cc1
- EC50 (Plasmodium falciparum [1]): 30 µM
- EC50 (Plasmodium falciparum [2]): > 30 µM
- EC50 (Plasmodium falciparum [3]): > 30 µM
- EC50 (Plasmodium falciparum [4]): > 30 µM

Compound: N#Cc1nc(NCc2cccc(-c3ccc(Cl)c(Cl)c3)c2)c2ncn(CCCO)c2n1
- EC50 (Plasmodium falciparum [1]): > 30 µM
- EC50 (Plasmodium falciparum [2]): > 30 µM
- EC50 (Plasmodium falciparum [3]): > 30 µM
- EC50 (Plasmodium falciparum [4]): > 30 µM

Compound: CCCCCCNc1nc(C#N)nc2c1NCN2CC1CCCCC1
- EC50 (Plasmodium falciparum [1]): > 30 µM
- EC50 (Plasmodium falciparum [2]): > 30 µM
- EC50 (Plasmodium falciparum [3]): > 30 µM
- EC50 (Plasmodium falciparum [4]): > 30 µM

Compound: COc1ccc(CN2CNc3c(NCc4ccc(Cl)cc4)nc(C#N)nc32)cc1
- EC50 (Plasmodium falciparum [1]): 30 µM
- EC50 (Plasmodium falciparum [2]): > 30 µM
- EC50 (Plasmodium falciparum [3]): > 30 µM
- EC50 (Plasmodium falciparum [4]): > 30 µM

Compound: Cc1cccc(/C(=N/NC(N)=S)c2cccc(F)c2)c1
- EC50 (Plasmodium falciparum [1]): > 30 µM
- EC50 (Plasmodium falciparum [2]): > 30 µM
- EC50 (Plasmodium falciparum [3]): > 30 µM
- EC50 (Plasmodium falciparum [4]): > 30 µM

Compound: N#Cc1nc(NCc2ccc(Cl)cc2)c2c(n1)N(Cc1ccccc1)CN2
- EC50 (Plasmodium falciparum [1]): 30 µM
- EC50 (Plasmodium falciparum [2]): 30 µM
- EC50 (Plasmodium falciparum [3]): > 30 µM
- EC50 (Plasmodium falciparum [4]): > 30 µM

Compound: CCCCN1CNc2c(NCc3ccccc3)nc(C#N)nc21
- EC50 (Plasmodium falciparum [1]): > 30 µM
- EC50 (Plasmodium falciparum [2]): > 30 µM
- EC50 (Plasmodium falciparum [3]): > 30 µM
- EC50 (Plasmodium falciparum [4]): > 30 µM

Compound: N#Cc1nc(NCc2ccc(Cl)c(Cl)c2)c2c(n1)N(CCCC(=O)O)CN2
- EC50 (Plasmodium falciparum [1]): > 30 µM
- EC50 (Plasmodium falciparum [2]): > 30 µM
- EC50 (Plasmodium falciparum [3]): > 30 µM
- EC50 (Plasmodium falciparum [4]): > 30 µM

Compound: COC(=O)c1cccc(-c2cccc(CNc3nc(C#N)nc4c3ncn4CCCO)c2)c1
- EC50 (Plasmodium falciparum [1]): > 30 µM
- EC50 (Plasmodium falciparum [2]): > 30 µM
- EC50 (Plasmodium falciparum [3]): > 30 µM
- EC50 (Plasmodium falciparum [4]): > 30 µM

Compound: N#Cc1nc(NCc2ccccc2)c2c(n1)N(Cc1cccc(C(F)(F)F)c1)CN2
- EC50 (Plasmodium falciparum [1]): 30 µM
- EC50 (Plasmodium falciparum [2]): 30 µM
- EC50 (Plasmodium falciparum [3]): 30 µM
- EC50 (Plasmodium falciparum [4]): 30 µM

Compound: N#Cc1nc(NCc2ccc(Cl)c(Cl)c2)c2c(n1)N(CCCO)CN2
- EC50 (Plasmodium falciparum [1]): > 30 µM
- EC50 (Plasmodium falciparum [2]): > 30 µM
- EC50 (Plasmodium falciparum [3]): > 30 µM
- EC50 (Plasmodium falciparum [4]): > 30 µM

Compound: N#Cc1nc(NCCc2ccccc2)c2c(n1)N(c1cccnc1)CN2
- EC50 (Plasmodium falciparum [1]): > 30 µM
- EC50 (Plasmodium falciparum [2]): > 30 µM
- EC50 (Plasmodium falciparum [3]): > 30 µM
- EC50 (Plasmodium falciparum [4]): > 30 µM

Compound: N#Cc1nc(NCc2cccc(-c3cn(S(=O)(=O)c4ccccc4)c4ccccc34)c2)c2ncn(CCCO)c2n1
- EC50 (Plasmodium falciparum [1]): 30 µM
- EC50 (Plasmodium falciparum [2]): 30 µM
- EC50 (Plasmodium falciparum [3]): > 30 µM
- EC50 (Plasmodium falciparum [4]): > 30 µM

Compound: N#Cc1nc(NCc2ccc(Cl)c(Cl)c2)c2c(n1)N(Cc1cccc(C(F)(F)F)c1)CN2
- EC50 (Plasmodium falciparum [1]): 30 µM
- EC50 (Plasmodium falciparum [2]): 24 µM
- EC50 (Plasmodium falciparum [3]): 30 µM
- EC50 (Plasmodium falciparum [4]): 27 µM

Compound: CCCCN1CNc2c(NCc3ccc(OC)cc3)nc(C#N)nc21
- EC50 (Plasmodium falciparum [1]): > 30 µM
- EC50 (Plasmodium falciparum [2]): > 30 µM
- EC50 (Plasmodium falciparum [3]): > 30 µM
- EC50 (Plasmodium falciparum [4]): > 30 µM

Compound: Cc1ccc(/C(=N/NC(N)=S)c2cccc(C(F)(F)F)c2)cc1
- EC50 (Plasmodium falciparum [1]): 30 µM
- EC50 (Plasmodium falciparum [2]): > 30 µM
- EC50 (Plasmodium falciparum [3]): > 30 µM
- EC50 (Plasmodium falciparum [4]): > 30 µM

Compound: COCC(CN1CNc2c(NCc3ccc(Cl)c(Cl)c3)nc(C#N)nc21)OC (configuration not stated)
- EC50 (Plasmodium falciparum [1]): 30 µM
- EC50 (Plasmodium falciparum [2]): > 30 µM
- EC50 (Plasmodium falciparum [3]): > 30 µM
- EC50 (Plasmodium falciparum [4]): > 30 µM

Compound: CCCCN1CNc2c(NC(C)c3ccccc3)nc(C#N)nc21 (configuration not stated)
- EC50 (Plasmodium falciparum [1]): 30 µM
- EC50 (Plasmodium falciparum [2]): 30 µM
- EC50 (Plasmodium falciparum [3]): 30 µM
- EC50 (Plasmodium falciparum [4]): > 30 µM
